By EC50 is commonly meant the concentration needed to bring the measured effect to its halfway point. The term fraction unbound denotes free concentration divided by total concentration.

SMILES strings stand for the structures. Activity calls are given as the source filed them. The rule behind the calls is not given here. A value given as a limit tells only on which side of the number the result lay.

Data set [1] in a line: Agonist activity at APJ receptor in anesthetized Lewis rat model of myocardial infarction assessed as target coverage at 30 ug/kg/min iv administered as continuous infusion for 30 mins relative to control. The note with it: dose 30 µg/kg/min, 0.5 h. The class given is functional.
The nature of data set [2]: Agonist activity at APJ receptor in anesthetized Lewis rat model of myocardial infarction assessed as target coverage at 10 ug/kg/min iv administered as continuous infusion for 30 mins relative to control. The class given is functional. The settings on record: dose 10 µg/kg/min, 0.5 h.
Data set [3] deals with Rattus norvegicus. The data set is described as follows: Positive […] activity in anesthetized Lewis rat model of myocardial infarction assessed as increase in ejection fraction at 10 ug/kg/min, iv administered as continuous infusion for 30 mins. The class given is functional. The settings on record: dose 10 µg/kg/min, 0.5 h.
The nature of data set [4]: Unbound fraction in anesthetized Lewis rat myocardial infarction model plasma assessed as free plasma concentration at 10 ug/kg/min, iv administered as continuous infusion for 30 mins. The format is ADME, organism-based. The settings on record: in vivo, 0.01 mg/kg, 0.5 h, dose 10 µg/kg/min.
The next data set deals with T1, Apelin receptor (Rattus norvegicus, UniProt Q9JHG3).
T1 sequence (Q9JHG3 whole entry): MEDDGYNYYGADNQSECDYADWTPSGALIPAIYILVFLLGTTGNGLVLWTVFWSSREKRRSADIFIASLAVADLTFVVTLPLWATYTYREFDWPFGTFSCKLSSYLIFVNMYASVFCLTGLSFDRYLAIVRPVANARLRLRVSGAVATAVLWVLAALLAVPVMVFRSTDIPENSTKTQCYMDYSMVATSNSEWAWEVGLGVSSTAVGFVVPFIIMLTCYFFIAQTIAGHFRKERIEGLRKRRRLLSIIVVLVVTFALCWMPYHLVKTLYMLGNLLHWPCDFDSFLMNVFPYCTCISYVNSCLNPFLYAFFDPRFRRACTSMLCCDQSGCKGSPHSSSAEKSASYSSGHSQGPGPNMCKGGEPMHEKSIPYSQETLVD
Put plainly: Agonist activity at rat APJ receptor stably expressed in CHO cell membranes in presence of [35S]GTPgammaS by scintillation proximity assay. The class given is functional. A general note: GTPγS is a poorly hydrolysed GTP analogue; its binding reports G protein activation.

Data set [5] is described as follows: Unbound fraction in anesthetized Lewis rat myocardial infarction model plasma assessed as free plasma concentration at 3.7 ug/kg/min, iv administered as continuous infusion for 30 mins. The format is ADME, organism-based. The note with it: in vivo, 0.0037 mg/kg, 0.5 h, dose 3.7 µg/kg/min.
Data set [6] can be described thus: Stability in rat Kidney S9 fraction assessed as compound remaining at 4 hrs. The note with it: read-out: Stabilty. The format is ADME, subcellular.
Data set [7] in a line: Unbound Cmax in rat at 0.5 mg/kg, sc at 15 mins. The format is ADME, organism-based. The note with it: in vivo, 0.25 h.
Data set [8] is described as follows: Unbound fraction in anesthetized Lewis rat myocardial infarction model plasma assessed as free plasma concentration at 30 ug/kg/min, iv administered as continuous infusion for 30 mins. The class given is ADME, organism-based. The settings on record: in vivo, 0.03 mg/kg, 0.5 h, dose 30 µg/kg/min.
Data set [9] relates to Rattus norvegicus. The data set is described as follows: Positive […] activity in anesthetized Lewis rat model of myocardial infarction assessed as increase in ejection fraction at 30 ug/kg/min, iv administered as infusion for 30 mins. The class given is functional. The note with it: dose 30 µg/kg/min, 0.5 h.
The nature of data set [10]: Stability in rat plasma assessed as compound remaining at 4 hrs. The settings on record: read-out: Stabilty. The format is ADME, cell-free.
Data set [11] concerns Rattus norvegicus. The data set is described as follows: Positive […] activity in anesthetized Lewis rat model of myocardial infarction assessed as increase in ejection fraction at 3.7 ug/kg/min, iv administered as infusion for 30 mins. The format is functional, organism-based. The note with it: dose 3.7 µg/kg/min.
Data set [12] in a line: Plasma protein binding in rat assessed as unbound fraction by LC-MS/MS analysis. The format is ADME, cell-free.
The test system of data set [13] is Rattus norvegicus. Put plainly: Agonist activity at APJ receptor in anesthetized Lewis rat model of myocardial infarction assessed as target coverage at 3.7 ug/kg/min, iv administered as continuous infusion for 30 mins. The format is functional, organism-based. The note with it: dose 3.7 µg/kg/min.
A short description of data set [14]: Stability in rat liver S9 fraction assessed as compound remaining at 4 hrs. The format is ADME, subcellular. The settings on record: read-out: Stabilty.
Data set [15] in a line: Terminal half life in rat at 0.1 mg/kg, iv for 30 mins. The class given is ADME, organism-based. The note with it: in vivo, read-out: beta t1/2.
The test system of data set [16] is Rattus norvegicus. The data set is described as follows: Positive […] activity in anesthetized Lewis rat model of myocardial infarction assessed as plasma concentration for maximal pharmacodynamic effect at 1 mg/kg/min, iv administered as continuous infusion for 20 mins. The format is functional.
Data set [17] deals with Rattus norvegicus. The data set is described as follows: Positive […] activity in anesthetized Lewis rat model of myocardial infarction assessed as increase in ejection fraction at 1 mg/kg/min, iv administered as continuous infusion for 20 mins. The format is functional.

With `CCCCCCCCCCCCC(=O)N[C@@H](CCC(=O)NCCOCCOCC(=O)NCCOCCOCC(=O)N[C@@H](CCC(N)=O)C(=O)N[C@@H](CCCNC(=N)N)C(=O)N1CCC[C@H]1C(=O)N[C@@H](CCCNC(=N)N)C(=O)N[C@@H](CC(C)C)C(=O)N[C@@H](CO)C(=O)N[C@@H](Cc1c[nH]cn1)C(=O)N[C@@H](CCCCN)C(=O)NCC(=O)N1CCC[C@H]1C(=O)N[C@@H](CCSC)C(=O)N1CCC[C@H]1C(=O)N[C@@H](Cc1ccccc1)C(=O)O)C(=O)O`, the “fold change (FC)” value in data set [1] is recorded as 6.3; in data set [2], 2.7. Moreover, the Activity with Rattus norvegicus [3] was found to be 22.8%; in the data set on Rattus norvegicus [9] it was 6.1%. The entries for the “Cp(f)” value in data set [4], in data set [5] and in data set [8] were 12 nM, 3 nM and 29 nM, respectively. For the same compound, the EC50 on Apelin receptor came to 4.6 nM. Further, the remaining at 4 h in data set [6] was 82%; in data set [10], 51%; in data set [14], greater than 90%. In [7], this compound gave a fCmax of 0.3 nM. Moreover, the result with Rattus norvegicus [11] and with Rattus norvegicus [13] was inactive. In addition, in data set [12], the free fraction (fraction unbound) is 0.011. Further, the half-life in [15] is 4.3 min.

For `CSCC[C@H](NC(=O)[C@@H]1CCCN1C(=O)CNC(=O)[C@H](CCCCN)NC(=O)[C@H](Cc1cnc[nH]1)NC(=O)[C@H](CO)NC(=O)[C@H](CC(C)C)NC(=O)[C@H](CCCNC(=N)N)NC(=O)[C@@H]1CCCN1C(=O)[C@H](CCCNC(=N)N)NC(=O)[C@@H]1CCC(=O)N1)C(=O)N1CCC[C@H]1C(=O)N[C@@H](Cc1ccccc1)C(=O)O`, the MPE with Rattus norvegicus [16] is 16.4 µM. In addition, the Activity in the data set on Rattus norvegicus [17] is listed as 16.6%.
